# Where two headings read alike, the source gives them in different places.
# Legend:
# [1] = test system: p110δ/p110γ; experiment: HTRF biochemical assay, class I PI3K isoforms (Reaction Biology Corp.): fold selectivity p110δ/p110γ; settings: fold form selectivity
# [2] = test system: p110β/p110α; experiment: HTRF biochemical assay, class I PI3K isoforms (Reaction Biology Corp.): fold selectivity p110β/p110α; settings: fold form selectivity
# Description: (§1) Fold form selectivity inhibition data against class I PI3K isoforms, as determined using a HTRF biochemical assay conducted at Reaction Biology Corp., is listed below.
# [3] = test system: p110β/p110γ; experiment: HTRF biochemical assay, class I PI3K isoforms (Reaction Biology Corp.): fold selectivity p110β/p110γ; settings: fold form selectivity
# Description: as §1
# [4] = test system: p110δ/p110α; experiment: HTRF biochemical assay, class I PI3K isoforms (Reaction Biology Corp.): fold selectivity p110δ/p110α; settings: fold form selectivity
# [5] = Rodent pharmacokinetics: oral bioavailability and clearance, plasma PK; format: in vivo, mouse
# Protocol: Formulation: 10% DMSO, 90% Saline Dosing: 10 mg/kg P.O. and 5 mg/kg I.V.
# • Species=male mouse; • Strain=Balb/c; • 18 male mice were divided into two groups Group 1 (3 mg/kg; I.V.), Group 2 (10 mg/kg; P.O.) with each group comprising nine mice; • Blood samples (approximately 60 μL) were collected from retro orbital plexus under light isoflurane anesthesia such that the samples were obtained at pre-dose, 0.08, 0.25, 0.5, 1, 2, 4, 8 and 24 hr (I.V.) and pre-dose, 0.25, 0.5, 1, 2, 4, 6, 8 and 24 hr (P.O.); • The blood samples were collected from a set of three mice at each time point in labeled micro centrifuge tube containing K2EDTA as anticoagulant; • Plasma samples were separated by centrifugation of whole blood and stored below −70° C. until bioanalysis; • All samples were processed for analysis by protein precipitation using acetonitrile (ACN) and analyzed with fit for purpose LC/MS/MS method (LLOQ: 2.02 ng/mL); • Pharmacokinetic parameters were calculated using the non-compartmental analysis tool of Phoenix WinNonlin (Version 6.3). Formulation: Animals in Group 1 were administered intravenously with Example B solution formulation in 20% propylene glycol, 50% of PEG 400 and 30% of 20% βCD in water via tail vein at a dose of 3 mg/kg. Animals in Group 2 were administered with oral solution formulation of Example B in 20% propylene glycol, 50% of PEG 400 and 30% of 20% HPβCD in water at a dose of 10 mg/kg; Dosing: 10 mg/kg P.O. and 3 mg/kg I.V.
# • Species=male mouse; • Strain=Balb/c; • 18 male mice were divided into two groups Group 1 (3 mg/kg; I.V.), Group 2 (10 mg/kg; P.O.) with each group comprising nine mice; • Blood samples (approximately 60 μL) were collected from retro orbital plexus under light isoflurane anesthesia such that the samples were obtained at pre-dose, 0.08, 0.25, 0.5, 1, 2, 4, 8 and 24 hr (I.V.) and pre-dose, 0.25, 0.5, 1, 2, 4, 6, 8 and 24 hr (P.O.); • The blood samples were collected from a set of three mice at each time point in labeled micro centrifuge tube containing K2EDTA as anticoagulant; • Plasma samples were separated by centrifugation of whole blood and stored below −70° C. until bioanalysis; • All samples were processed for analysis by protein precipitation using acetonitrile (ACN) and analyzed with fit for purpose LC/MS/MS method (LLOQ: 2.47 ng/mL); • Pharmacokinetic parameters were calculated using the non-compartmental analysis tool of Phoenix WinNonlin (Version 6.3). Formulation: Animals in Group 1 were administered intravenously with Example G solution formulation in 5% NMP, 5% solutol HS-15 in 90% HPβCD solution (20% HPβCD in RO water) at 3 mg/kg dose. Animals in Group 2 were administered orally with 10 mg/kg solution formulation of Example G in 5% NMP, 5% solutol HS-15 in 90% HPβCD solution (20% HPβCD in RO water) Dosing: 10 mg/kg P.O. and 3 mg/kg I.V.
# • Species=male mouse; • Strain=CD1; • n=3 male mice per time point per route; • Terminal blood sampling at 8 time points (5 min, 10 min, 0.5 hr, 1 hr, 3 hr, 6 hr, 8 hr and, 24 hr); • Collection of plasma, bio-analysis and report of pharmacokinetic parameters. Formulation: 10% DMSO, 90% Saline Dosing: 10 mg/kg P.O. and 5 mg/kg I.V.
# [6] = in vivo, iv, male mouse, I.V. (5 mg/kg CD1: Example A, comparative; 3 mg/kg Balb/c: Examples B, G), mesylate salt, read-out: Clearance
Fold IC50 p110δ/p110γ [1],Fold IC50 p110β/p110α [2],Fold IC50 p110β/p110γ [3],Fold IC50 p110δ/p110α [4],"F ([5]; male, CD1, mouse, in vivo) [%]","clearance ([5]; male, mouse, in vivo, iv) [mL/min/kg]",Compound,"clearance [5, 6] [mL/min/kg]","F ([5]; male Balb/c mouse, PO 10 mg/kg vs IV 3 mg/kg, 20% propylene glycol, 50% PEG 400, 30% of 20% HPβCD in water, mesylate salt) [%]","clearance ([5]; male, mouse, in vivo, summary table, mice, mesylate salts, read-out: Clearance) [mL/min/kg]","F ([5]; male Balb/c mouse, PO 10 mg/kg vs IV 3 mg/kg, 5% NMP, 5% solutol HS-15 in 90% HPβCD solution, mesylate salt) [%]"
** (** = >50×),* (* = ≥10× ≥ 50×),** (** = >50×),** (** = >50×),–,–,"c1cc(-c2nc(N3CCOCC3)c3oc4ncc(CN5CC6CC[C@H](C5)O6)cc4c3n2)c2cc[nH]c2c1 (stereo in doubt) [Example C, 4-(1H-Indol-4-yl)-6-(morpholin-4-yl)-12-{8-oxa-3-azabicyclo[3.2.1]octan-3-ylmethyl}-8-oxa-3,5,10-triazatricyclo[7.4.0.0^2,7]trideca-1(13),2(7),3,5,9,11-hexaene]",–,–,–,–
** (** = >50×),** (** = >50×),** (** = >50×),** (** = >50×),–,–,"CN1CCC2(CCN(Cc3cnc4oc5c(N6CCOCC6)nc(-c6cccc7[nH]ccc67)nc5c4c3)CC2)C1 [Example D, 4-(1H-Indol-4-yl)-12-({2-methyl-2,8-diazaspiro[4.5]decan-8-yl}methyl)-6-(morpholin-4-yl)-8-oxa-3,5,10-triazatricyclo[7.4.0.0^2,7]trideca-1(13),2(7),3,5,9,11-hexaene]",–,–,–,–
** (** = >50×),** (** = >50×),** (** = >50×),** (** = >50×),–,–,"CN1CCC2(CCN(Cc3cnc4oc5c(N6CCOCC6)nc(-c6cccc7[nH]ccc67)nc5c4c3)C2)C1 (stereo not drawn) [Example E, 4-(1H-Indol-4-yl)-12-({7-methyl-2,7-diazaspiro[4.4]nonan-2-yl}methyl)-6-(morpholin-4-yl)-8-oxa-3,5,10-triazatricyclo[7.4.0.0^2,7]trideca-1(13),2(7),3,5,9,11-hexaene]",–,–,–,–

# Further lines, the molecule ahead of its results:
Compound,Fold IC50 p110δ/p110γ [1],Fold IC50 p110β/p110α [2],Fold IC50 p110β/p110γ [3],Fold IC50 p110δ/p110α [4],"F ([5]; male, CD1, mouse, in vivo) [%]","clearance ([5]; male, mouse, in vivo, iv) [mL/min/kg]","clearance [5, 6] [mL/min/kg]","F ([5]; male Balb/c mouse, PO 10 mg/kg vs IV 3 mg/kg, 20% propylene glycol, 50% PEG 400, 30% of 20% HPβCD in water, mesylate salt) [%]","clearance ([5]; male, mouse, in vivo, summary table, mice, mesylate salts, read-out: Clearance) [mL/min/kg]","F ([5]; male Balb/c mouse, PO 10 mg/kg vs IV 3 mg/kg, 5% NMP, 5% solutol HS-15 in 90% HPβCD solution, mesylate salt) [%]"
"c1cc(-c2nc(N3CCOCC3)c3oc4ncc(CN5C[C@@H]6C[C@H]5CO6)cc4c3n2)c2cc[nH]c2c1 [Example A, 4-(1H-Indol-4-yl)-6-(morpholin-4-yl)-12-[(1S,4S)-2-oxa-5-azabicyclo[2.2.1]heptan-5-ylmethyl]-8-oxa-3,5,10-triazatricyclo[7.4.0.0^2,7]trideca-1(13),2(7),3,5,9,11-hexaene]",–,–,–,–,73.77,21,–,–,–,–
"c1cc(-c2nc(N3CCOCC3)c3oc4ncc(CN5CCC6(CC5)COC6)cc4c3n2)c2cc[nH]c2c1 [Example B, 4-(1H-Indol-4-yl)-6-(morpholin-4-yl)-12-{2-oxa-7-azaspiro[3.5]nonan-7-ylmethyl}-8-oxa-3,5,10-triazatricyclo[7.4.0.0^2,7]trideca-1(13),2(7),3,5,9,11-hexaene]",** (** = >50×),** (** = >50×),** (** = >50×),** (** = >50×),–,–,33,74,33,–
"c1cc(-c2nc(N3CCOCC3)c3oc4ncc(CN5CCC56COC6)cc4c3n2)c2cc[nH]c2c1 [Example G, 4-(1H-indol-4-yl)-6-(morpholin-4-yl)-12-{6-oxa-1-azaspiro[3.3]heptan-1-ylmethyl}-8-oxa-3,5,10-triazatricyclo[7.4.0.0^2,7]trideca-1(13),2(7),3,5,9,11-hexaene]",** (** = >50×),* (* = ≥10× ≥ 50×),** (** = >50×),** (** = >50×),–,–,26,–,–,30

# Source: patent US11779586B2, “Compounds comprising tricyclic heterocyclic compounds” (Convalife (Shanghai) Co. Limited, priority 2015, dated 2023)
